Test results reported in patent US10562878B2, “Cycloalkylamines as monoamine reuptake inhibitors” (Sunovion Pharmaceuticals Inc., priority 2006, dated 2020).
Where a name gives a salt, the structure may show the parent alone. Read-outs that look alike come from different tables or passages of the source.

Columns and labels:
[1] = biological target: DA Transporter (DAT) sites in mouse brain (Mus musculus (Mouse), UniProt Q61327); experiment: Ex vivo [3H] WIN 35428 binding to DAT sites in mouse brain after oral dosing; conditions: mice, 60 min after treatment; for receptor occupancy at 1 mg/kg / receptor occupancy at 3 mg/kg / receptor occupancy at 10 mg/kg / receptor occupancy at 30 mg/kg: mouse
[2] = biological target: human dopamine transporter (Homo sapiens (Human), UniProt Q01959); experiment: Dopamine functional uptake assay, recombinant human transporter in CHO-K1 or HEK293 cells; format: cell-based; conditions: read-out: hDAT IC50
human dopamine transporter, sequence (Q01959 whole entry): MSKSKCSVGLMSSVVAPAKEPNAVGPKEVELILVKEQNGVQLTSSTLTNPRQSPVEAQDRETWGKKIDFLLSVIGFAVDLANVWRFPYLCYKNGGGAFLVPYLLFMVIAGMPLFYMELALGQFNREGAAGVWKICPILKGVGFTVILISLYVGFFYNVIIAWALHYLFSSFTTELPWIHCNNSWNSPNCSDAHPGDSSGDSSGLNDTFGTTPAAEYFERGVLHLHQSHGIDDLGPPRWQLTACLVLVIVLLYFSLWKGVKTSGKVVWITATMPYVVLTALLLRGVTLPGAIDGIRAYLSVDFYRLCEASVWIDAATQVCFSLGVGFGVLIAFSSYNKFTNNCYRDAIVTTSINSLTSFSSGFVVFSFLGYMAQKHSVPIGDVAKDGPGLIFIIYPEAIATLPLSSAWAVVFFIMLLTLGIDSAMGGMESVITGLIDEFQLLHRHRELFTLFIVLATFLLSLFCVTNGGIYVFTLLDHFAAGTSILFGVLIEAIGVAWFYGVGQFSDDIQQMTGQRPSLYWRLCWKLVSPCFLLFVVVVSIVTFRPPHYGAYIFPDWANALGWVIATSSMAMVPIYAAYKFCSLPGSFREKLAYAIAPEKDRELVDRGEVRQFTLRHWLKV

mice [3] = experiment: Mouse tail suspension test; format: in vivo
[4] = biological target: 5-HT Transporter (SERT) sites in mouse brain (Mus musculus (Mouse), UniProt Q60857); experiment: Ex vivo [3H] citalopram binding to SERT sites in mouse brain after oral dosing; conditions: mice, 60 min after treatment; for receptor occupancy at 1 mg/kg / receptor occupancy at 3 mg/kg / receptor occupancy at 10 mg/kg / receptor occupancy at 30 mg/kg: mouse
[5] = biological target: T1, Norepinephrine Transporter (NET) sites in mouse brain (Mus musculus (Mouse), UniProt O55192); experiment: in vivo; conditions: po, read-out: NET % Transporter Occupancy
Rats = experiment: Rat forced swim test; format: in vivo
[6] = biological target: human serotonin transporter (Homo sapiens (Human), UniProt P31645); experiment: Serotonin functional uptake assay, recombinant human transporter in HEK-293 cells; format: cell-based; conditions: Human serotonin transporter uptake; read-out: hSERT IC50
human serotonin transporter, sequence (P31645 whole entry): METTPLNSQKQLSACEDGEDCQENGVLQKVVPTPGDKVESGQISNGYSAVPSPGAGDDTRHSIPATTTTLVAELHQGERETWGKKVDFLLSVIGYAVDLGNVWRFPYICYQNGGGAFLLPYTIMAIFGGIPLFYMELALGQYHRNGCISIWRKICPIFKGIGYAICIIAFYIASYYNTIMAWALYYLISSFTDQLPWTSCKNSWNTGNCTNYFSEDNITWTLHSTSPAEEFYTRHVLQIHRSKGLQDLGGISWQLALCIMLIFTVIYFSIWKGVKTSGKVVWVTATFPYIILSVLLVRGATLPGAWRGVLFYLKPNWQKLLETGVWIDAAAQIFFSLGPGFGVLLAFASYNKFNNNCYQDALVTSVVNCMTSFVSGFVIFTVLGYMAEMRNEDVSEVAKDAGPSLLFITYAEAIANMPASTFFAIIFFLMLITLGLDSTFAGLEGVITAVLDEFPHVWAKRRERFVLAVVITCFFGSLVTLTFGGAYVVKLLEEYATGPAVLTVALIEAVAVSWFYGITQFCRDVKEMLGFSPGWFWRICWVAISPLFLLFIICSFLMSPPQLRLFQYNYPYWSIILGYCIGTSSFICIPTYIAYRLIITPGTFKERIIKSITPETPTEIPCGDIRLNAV

[7] = biological target: T1, Norepinephrine Transporter (NET) sites in mouse brain; conditions: mice, 60 min after treatment
mice [8] = experiment: Mouse locomotor activity; format: in vivo
[9] = biological target: rat serotonin (5-HT) reuptake transporter (Rattus norvegicus (Rat), UniProt P31652); experiment: Serotonin functional uptake assay, rat synaptosomes; format: biochemical; conditions: read-out: rSERT IC50
[10] = biological target: rat dopamine reuptake transporter (Rattus norvegicus (Rat), UniProt P23977); experiment: Dopamine functional uptake assay, rat striatal synaptosomes; format: biochemical; conditions: read-out: rDAT IC50
[11] = in vivo; cited from earlier work
[12] = biological target: human norepinephrine reuptake transporter (Homo sapiens (Human), UniProt P23975); conditions: cited from earlier work

## CN(C)C[C@]1(c2ccc(Cl)c(Cl)c2)CCCC[C@H]1O (relative stereo) [153 E2, trans-2-(3,4-dichlorophenyl)-2-((dimethylamino)methyl)cyclohexanol]
[1]; 1 mg/kg PO
  DAT Mean Specific Binding ± S.E.M.: 22774 ± 916 dpm
  receptor occupancy at 1 mg/kg: -10%
[1]; 3 mg/kg PO
  DAT Mean Specific Binding ± S.E.M.: 24159 ± 1313 dpm
  receptor occupancy at 3 mg/kg: -16%
[1]; 30 mg/kg PO
  DAT Mean Specific Binding ± S.E.M.: 16194 ± 1293 dpm
  receptor occupancy at 30 mg/kg: 22%
[1]; 10 mg/kg PO
  receptor occupancy at 10 mg/kg: -6%
[2]
  IC50: 25 nM
Mice [3]; 10 mg/kg PO
  Mouse Tail Suspension Mean Immobility Time ± S.E.M.: 170.2 ± 6.3
Mice [3]; 30 mg/kg PO
  Mouse Tail Suspension Mean Immobility Time ± S.E.M.: 154.5 ± 8.4
[4]; 1 mg/kg PO
  SERT Mean Specific Binding ± S.E.M.: 3271 ± 199 dpm
  receptor occupancy at 1 mg/kg: -1%
[4]; 3 mg/kg PO
  SERT Mean Specific Binding ± S.E.M.: 2968 ± 100 dpm
  receptor occupancy at 3 mg/kg: 8%
[4]; 10 mg/kg PO
  SERT Mean Specific Binding ± S.E.M.: 2327 ± 150 dpm
  receptor occupancy at 10 mg/kg: 28%
[4]; 30 mg/kg PO
  SERT Mean Specific Binding ± S.E.M.: 1359 ± 89 dpm
  receptor occupancy at 30 mg/kg: 58%
[5]
  receptor occupancy at 1 mg/kg: 6%
  receptor occupancy at 3 mg/kg: 10%
  receptor occupancy at 10 mg/kg: 9%
  receptor occupancy at 30 mg/kg: 40%
Rats; 3 mg/kg PO
  Rat Forced Swim Climbing (Means ± S.E.M.): 8.8 ± 1.5
  Rat Forced Swim Immobility (Means ± S.E.M.): 49.9 ± 1.7
  Rat Forced Swim Swimming (Means ± S.E.M.): 1.9 ± 0.8
Rats; 10 mg/kg PO
  Rat Forced Swim Climbing (Means ± S.E.M.): 11.7 ± 1.8
  Rat Forced Swim Immobility (Means ± S.E.M.): 44.0 ± 2.1
  Rat Forced Swim Swimming (Means ± S.E.M.): 4.3 ± 1.1
Rats; 30 mg/kg PO
  Rat Forced Swim Climbing (Means ± S.E.M.): 22.2 ± 5.2
  Rat Forced Swim Immobility (Means ± S.E.M.): 31.3 ± 6.7
  Rat Forced Swim Swimming (Means ± S.E.M.): 4.6 ± 1.3
[6]
  IC50: 64 nM
[7]; 1 mg/kg PO
  NET Mean Specific Binding ± S.E.M.: 1804 ± 79 dpm
[7]; 3 mg/kg PO
  NET Mean Specific Binding ± S.E.M.: 1726 ± 44 dpm
[7]; 10 mg/kg PO
  NET Mean Specific Binding ± S.E.M.: 1734 ± 62 dpm
[7]; 30 mg/kg PO
  NET Mean Specific Binding ± S.E.M.: 1140 ± 53 dpm

## CN(C)C[C@]1(c2ccc3ccccc3c2)CCCC[C@H]1O (relative stereo) [164 E1, trans-2-((dimethylamino)methyl)-2-(naphthalen-2-yl)cyclohexanol]
[1]; 1 mg/kg PO
  DAT Mean Specific Binding ± S.E.M.: 23574 ± 1313 dpm
  receptor occupancy at 1 mg/kg: -11%
[1]; 3 mg/kg PO
  DAT Mean Specific Binding ± S.E.M.: 18002 ± 1516 dpm
  receptor occupancy at 3 mg/kg: 16%
[1]; 10 mg/kg PO
  DAT Mean Specific Binding ± S.E.M.: 17727 ± 2871 dpm
  receptor occupancy at 10 mg/kg: 17%
[1]; 30 mg/kg PO
  DAT Mean Specific Binding ± S.E.M.: 15630 ± 1085 dpm
  receptor occupancy at 30 mg/kg: 27%
Mice [8]; 10 mg/kg PO
  Mouse Locomotor Activity Total Distance Traveled ± S.E.M.: 210.3 ± 40.4
Mice [3]; 10 mg/kg PO
  Mouse Tail Suspension Mean Immobility Time ± S.E.M.: 162.1 ± 4.6
Mice [3]; 30 mg/kg PO
  Mouse Tail Suspension Mean Immobility Time ± S.E.M.: 155.3 ± 7.8
[4]; 1 mg/kg PO
  SERT Mean Specific Binding ± S.E.M.: 2796 ± 133 dpm
  receptor occupancy at 1 mg/kg: 20%
[4]; 3 mg/kg PO
  SERT Mean Specific Binding ± S.E.M.: 2273 ± 74 dpm
  receptor occupancy at 3 mg/kg: 35%
[4]; 10 mg/kg PO
  SERT Mean Specific Binding ± S.E.M.: 783 ± 61 dpm
  receptor occupancy at 10 mg/kg: 78%
[4]; 30 mg/kg PO
  SERT Mean Specific Binding ± S.E.M.: 271 ± 50 dpm
  receptor occupancy at 30 mg/kg: 92%
[5]
  receptor occupancy at 1 mg/kg: -8%
  receptor occupancy at 3 mg/kg: -1%
  receptor occupancy at 10 mg/kg: 13%
  receptor occupancy at 30 mg/kg: 41%
[7]; 1 mg/kg PO
  NET Mean Specific Binding ± S.E.M.: 1122 ± 58 dpm
[7]; 3 mg/kg PO
  NET Mean Specific Binding ± S.E.M.: 1046 ± 23 dpm
[7]; 10 mg/kg PO
  NET Mean Specific Binding ± S.E.M.: 903 ± 48 dpm
[7]; 30 mg/kg PO
  NET Mean Specific Binding ± S.E.M.: 610 ± 59 dpm

## CCC(N)C1(c2ccc(Cl)c(Cl)c2)CCCCC1 (single isomer, unassigned) [17 E1, 1-(1-(3,4-dichlorophenyl)cyclohexyl)propan-1-amine]
Mice [8]; 3 mg/kg PO
  Mouse Locomotor Activity Total Distance Traveled ± S.E.M.: 649.3 ± 78.4
Mice [8]; 10 mg/kg PO
  Mouse Locomotor Activity Total Distance Traveled ± S.E.M.: 478.3 ± 88.5
Mice [8]; 30 mg/kg PO
  Mouse Locomotor Activity Total Distance Traveled ± S.E.M.: 428.3 ± 120.6
Mice [3]; 3 mg/kg PO
  Mouse Tail Suspension Mean Immobility Time ± S.E.M.: 184.7 ± 9.0
Mice [3]; 10 mg/kg PO
  Mouse Tail Suspension Mean Immobility Time ± S.E.M.: 182.6 ± 4.1
Mice [3]; 30 mg/kg PO
  Mouse Tail Suspension Mean Immobility Time ± S.E.M.: 150.9 ± 7.8

## CNC(C)C1(c2ccc(Cl)c(Cl)c2)CCCCC1 (single isomer, unassigned) [44 E1, 1-(1-(3,4-dichlorophenyl)cyclohexyl)-N-methylethanamine]
Mice [8]; 30 mg/kg PO
  Mouse Locomotor Activity Total Distance Traveled ± S.E.M.: 402.3 ± 71.0
Mice [3]; 30 mg/kg PO
  Mouse Tail Suspension Mean Immobility Time ± S.E.M.: 120.4 ± 9.0

## CN(C)C[C@]1(c2ccc(Cl)c(Cl)c2)CCC[C@H](O)C1 (single isomer, unassigned) [190 E2, Cis-3-(3,4-dichlorophenyl)-3-((dimethylamino)methyl)cyclohexanol]
[2]
  IC50: 3 nM
[9]
  IC50: 120 nM
[10]
  IC50: 45 nM

## Clc1ccc(C23CNCC2C3)cc1Cl (single isomer, unassigned) [DOV 21,947, H-1-(3,4-dichlorophenyl)-3-azabicyclo[3.1.0]hexane]
[11]
  immobility in the tail suspension test: dose-dependent reduction in immobility

## CNCC1(c2ccc(Cl)c(Cl)c2)CCCCC1 [Compound 75, 1-(1-(3,4-dichlorophenyl)cyclohexyl)-N-methylmethanamine (hydrochloride)]
Mice [8]; 3 mg/kg PO
  Mouse Locomotor Activity Total Distance Traveled ± S.E.M.: 653.5 ± 48.4
Mice [8]; 10 mg/kg PO
  Mouse Locomotor Activity Total Distance Traveled ± S.E.M.: 608.8 ± 83.4
Mice [8]; 30 mg/kg PO
  Mouse Locomotor Activity Total Distance Traveled ± S.E.M.: 655.3 ± 117.7
Mice [3]; 3 mg/kg PO
  Mouse Tail Suspension Mean Immobility Time ± S.E.M.: 187.8 ± 9.6
Mice [3]; 10 mg/kg PO
  Mouse Tail Suspension Mean Immobility Time ± S.E.M.: 177.7 ± 5.8
Mice [3]; 30 mg/kg PO
  Mouse Tail Suspension Mean Immobility Time ± S.E.M.: 143.5 ± 5.8

## CN(C)C[C@]1(c2ccc3ccccc3c2)CC[C@](C)(O)CC1 [Compound 225, (1s,4s)-4-((dimethylamino)methyl)-1-methyl-4-(naphthalen-2-yl)cyclohexanol]
[1]; 1 mg/kg PO
  DAT Mean Specific Binding ± S.E.M.: 19787 ± 3338 dpm
[1]; 3 mg/kg PO
  DAT Mean Specific Binding ± S.E.M.: 21666 ± 3698 dpm
[1]; 10 mg/kg PO
  DAT Mean Specific Binding ± S.E.M.: 18872 ± 2775 dpm
[1]; 30 mg/kg PO
  DAT Mean Specific Binding ± S.E.M.: 14618 ± 1209 dpm
[2]
  IC50: 167 nM
Mice [8]; 0.3 mg/kg PO
  Mouse Locomotor Activity Total Distance Traveled ± S.E.M.: 519.5 ± 56.4
Mice [8]; 1 mg/kg PO
  Mouse Locomotor Activity Total Distance Traveled ± S.E.M.: 423.4 ± 62.3
Mice [3]; 10 mg/kg PO
  Mouse Tail Suspension Mean Immobility Time ± S.E.M.: 137.8 ± 5.2
Mice [3]; 30 mg/kg PO
  Mouse Tail Suspension Mean Immobility Time ± S.E.M.: 136.3 ± 2.5
[4]; 1 mg/kg PO
  SERT Mean Specific Binding ± S.E.M.: 3842 ± 152 dpm
[4]; 3 mg/kg PO
  SERT Mean Specific Binding ± S.E.M.: 2118 ± 139 dpm
[4]; 10 mg/kg PO
  SERT Mean Specific Binding ± S.E.M.: 904 ± 35 dpm
[4]; 30 mg/kg PO
  SERT Mean Specific Binding ± S.E.M.: 414 ± 37 dpm
Rats; 3 mg/kg PO
  Rat Forced Swim Climbing (Means ± S.E.M.): 8.4 ± 1.7
  Rat Forced Swim Immobility (Means ± S.E.M.): 50.8 ± 1.8
  Rat Forced Swim Swimming (Means ± S.E.M.): 0.8 ± 0.3
Rats; 10 mg/kg PO
  Rat Forced Swim Climbing (Means ± S.E.M.): 11.1 ± 2.7
  Rat Forced Swim Immobility (Means ± S.E.M.): 47.6 ± 3.0
  Rat Forced Swim Swimming (Means ± S.E.M.): 1.2 ± 0.6
Rats; 30 mg/kg PO
  Rat Forced Swim Climbing (Means ± S.E.M.): 25.0 ± 4.6
  Rat Forced Swim Immobility (Means ± S.E.M.): 33.4 ± 4.8
  Rat Forced Swim Swimming (Means ± S.E.M.): 1.1 ± 0.5
[7]; 1 mg/kg PO
  NET Mean Specific Binding ± S.E.M.: 1170 ± 68 dpm
[7]; 3 mg/kg PO
  NET Mean Specific Binding ± S.E.M.: 813 ± 64 dpm
[7]; 10 mg/kg PO
  NET Mean Specific Binding ± S.E.M.: 393 ± 21 dpm
[7]; 30 mg/kg PO
  NET Mean Specific Binding ± S.E.M.: 230 ± 33 dpm

## CN(C)C[C@]1(c2ccc(Cl)c(Cl)c2)CC[C@H](O)CC1 [Compound 288, (1s,4s)-4-(3,4-dichlorophenyl)-4-((dimethylamino)methyl)-cyclohexanol]
[2]
  IC50: 22 nM
[9]
  IC50: 67 nM
[10]
  IC50: 370 nM
[6]
  IC50: 84 nM

## COC(=O)C(c1ccccc1)C1CCCCN1 (stereo not shown) [methylphenidate]
[12]
  reported potency (IC50 or Ki), inhibition of human norepinephrine reuptake transporter: 38 nM
